“Also recorded” adds a separate entry of the source. Like-named read-outs stand apart in the source and are kept apart here.
Legend:
MCF-7 = experiment: MTS cell viability assay on MCF-7 cells; format: cell-based; conditions: Homo sapiens, MCF7, 48 h, Dox 1 µM, mean ± SEM, NA = no activity, read-out: Percentage (%) of inhibition, MCF-7
Description: Five tumor human cancer cell lines—cerebral astrocytoma (D-384), grade IV prostatic adenocarcinoma (PC-3), mammary adenocarcinoma (MCF-7), human colon carcinoma (RKO) and lung carcinoma (A-549)—along with one immortalized hamster cell line (CHO K-1) were used. The cells PC-3, MCF-7 and RKO were cultured in RPMI-1640, D-384 on DMEM and CHO K-1 on HAM F-12 medium supplemented with 10% fetal bovine serum (FBS, Invitrogen, Karlsruhe, Germany), 1% antibiotic-antimitotic solution (100 units/mL penicillin G, 100 µg/mL streptomycin, and 0.25 µg/mL amphotericin B, Gibco, Grand Island, NY, USA), and 1% L-glutamine (2 mM, Gibco). The cells were incubated at 37 °C in a 5% CO2 atmosphere. The viable cells were counted using the trypan blue exclusion method in a hemocytometer.
The MTS (5-[3-(carboxymethoxy)phenyl]-3-(4,5-dimethyl-2-thiazolyl)-2-(4-sulfo- phenyl)-2H-tetrazolium inner salt) cell viability assay was used to assess the inhibitory effects of the extracts on the survival of human cancer cell lines. A total of 3–5 × 10^3 cells/well were seeded into 96-well plates and were allowed to adhere for 24 h. […] Each concentration/assay was performed three times. Dimethyl sulfoxide (DMSO) was used as a negative control at a final concentration of 0.1% v/v, and 1 µM Doxorubicin was used as a positive control. The cells were incubated with the treatments for 48 h, after which 20 µL MTS (5 mg/mL, Aqueous One Solution Reagent, Gibco) was added and further incubated for 4 h at 37 °C. The absorbance was measured at 570 nm. The data obtained with cells treated with DMSO were defined to represent 100% viability.

[1] = test system: promastigotes of Leishmania mexicana; experiment: Leishmanicidal activity, MTT assay on promastigotes; format: cell-based; conditions: for SI (Selectivity Index) = Citotoxic activity/Leishmanicidal activity: CC50 RAW / IC50 L. mexicana; for IC50: Leishmania mexicana
Description: The leishmanicidal activity of all compounds was evaluated by measuring promastigotes’ mitochondrial activity using MTT colorimetric assay as described previously. In this study, promastigotes from Leishmania mexicana were used. The species were confirmed by amplifying and sequencing cytochrome b gene. Promastigotes were cultured at 25 °C in Schneider’s Drosophila Medium (Gibco, Invitrogen, Carlsbad, CA, USA) supplemented with 10% fetal bovine serum (Eurobio, Les Ulis, France). The medium was renewed every third day. Parasite density was determined by counting the cells using a Neubauer chamber.
Into each well of a 96-well plate were dispensed 1 × 10^6 parasites/well. A stock solution of the compounds was prepared in DMSO (Sigma Aldrich, Saint Louis, MO, USA), and serial dilutions were added to the parasite suspension, leading to concentrations ranging from 100 to 0.001 µM, keeping the solvent concentration at 0.5%. The final volume was 200 µL for each well and triplicate conditions were carried out. Amphotericin B (Gibco) treatment (1 µM) untreated parasites and DMSO 0.5% were used as positive and negative controls, respectively. After exposure to the compounds for 48 h in culture medium, 20 µL of a solution of 5 mg/mL MTT dissolved in PBS were added to each well. The plate was incubated at 25 °C for 2 h in darkness. The plate was then centrifuged at 4400 rpm for 10 min and the culture medium was then aspirated; 50 µL of DMSO were added into each well to solubilize the formazan crystals and the plate was shaken for 5 min and then it was measured by recording changes in absorbance at 570 nm using a microplate reader Cytation 5 (BioTek) spectrophotometer. A reference wavelength of 630 nm was used as background subtraction. Optical densities were analyzed because the quantity of formazan is directly proportional to the number of viable parasites. Data were analyzed with the statistical software GraphPad Prism 7.02 (GraphPad Software, Corp.).

[2] = test system: Leishmania mexicana cells; experiment: Comet assay of Leishmania mexicana cells; format: cell-based; set-up: Comet tail length, mean (vary) / Comet tail length, median (Q50): unit not given here; conditions: L. mexicana, 24 h at MIC; for Genotoxic effect (DNA breaks) in comet assay: in words; for Comet tail length, mean (vary) / Comet tail length, median (Q50): MMS 0.011%, Kruskal-Wallis $means
Description: We quantified DNA breaks by a comet assay to determine if these compounds are genotoxic. Here, L. mexicana cells were exposed for 24 h to MIC concentrations previously determined (see Materials and Methods Section) for each compound. Figure 1 represents the measurements obtained for tail length. All compounds generated DNA breaks expect 4s. […] Samples with DMSO and MMS (0.011%) were included as controls. Some representative pictures are shown at Figure S4. The effect of 4p could not be determined because the cells appear to be very damaged. The data was subjected via a Kruskal–Wallis one-way ANOVA (Statistical Analyses S2). […] These observations support a mechanism of action through the generation of DNA damage.
For leishmania, a method previously described for yeast was adapted. Briefly, after incubating the cells in presence of the compounds for 24 h, cells were collected and washed with buffer S (1 M sorbitol, 25 mM KH2PO4 in ultrapure water and adjust to pH 6.5 with NaOH). The pellet was resuspended in 400 µL of 1.5% LMA and 40 µL was spread (second layer) onto previously agarose-coated slides (first layer).
Slides were immersed in cold lysis buffer (30 mM NaOH, 1 M NaCl, 0.05 % (w/v) lauroylsarcosine, 50 mM EDTA, and 10 mM Tris–HCl, pH 10) for 25 min and then in cold electrophoresis alkaline buffer (30 mM NaOH, 10 mM EDTA, and 10 mM Tris–HCl, pH 10). They were then subjected to electrophoresis at 26V and 300 mA. Slides were immersed in neutralization buffer (10 mM Tris–HCl, pH 7.4; prepared in advance and stored at 4 °C) for 10 min at room temperature. The cells were then treated with proteinase K (20 min, 37 °C in humid chamber), followed by a new neutralization step. To dehydrate the slides, they were immersed in EtOH 90% and EtOH absolute for 10 min each. Finally, the slides were stained with Sybr Gold 1X.
The DNA migration was analyzed using a LEICA microscope with fluorescence (40×) by scoring 100 cells per slide in duplicate. The tail moment parameter was then analyzed by the Comet Score software.

[3] = read-out: IC50 original values, x.1 (Mean)
[4] = L. mexicana promastigotes, 48 h, MTT, read-out: Leishmanicidal Activity IC50

SMILES | inhibition at 100 µM (MCF-7) [%] | SI (Selectivity Index) = Citotoxic activity/Leishmanicidal activity [1] | IC50 [1, 3] [nM] | IC50 [1, 4] [nM] | Genotoxic effect (DNA breaks) in comet assay [2] | Comet tail length, mean (vary) [2] | Comet tail length, median (Q50) [2] | melting point [°C]
CC1=NN(c2ccccc2)C(=O)[C@@]12C(c1cccc(F)c1)[C@@]21C(=O)N(c2ccccc2)N=C1C (relative stereo) [4t, (5R*,6R*)-11-(3-Fluorophenyl)-4,10-dimethyl-2,8-diphenyl-2,3,8,9-tetraazadispiro[4.0.4.1]undeca-3,9-diene-1,7-dione] | 31.4 ± 3.65 | 12.3 | 216 | 220 ± 50 | biggest genotoxic effects | 124410000 | 116000000 | 152.1 to 153
CSc1ccc(C2[C@]3(C(=O)N(c4ccccc4)N=C3C)[C@@]23C(=O)N(c2ccccc2)N=C3C)cc1 (relative stereo) [4u, (5R*,6R*)-11-(4-Thiomethylphenyl)-4,10-dimethyl-2,8-diphenyl-2,3,8,9-tetraazadispiro[4.0.4.1]undeca-3,9-diene-1,7-dione] | 19.5 ± 2.96 | 22.1 | 417 | 420 ± 250 | highest genotoxic activity; also recorded: strongest effects | 179560000 | 177500000 | 154.4 to 157.3

Source: article PMC8398714, “Synthesis and Evaluation of Biological Activities of Bis(spiropyrazolone)cyclopropanes: A Potential Application against Leishmaniasis” (Molecules, 2021)
